Measured values as given in PubChem BioAssay (NCI).
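Cultured in 96-well plates, cells were exposed to test compound for 48 hours across five concentrations. The concentration for full growth arrest is given as TGI.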

What was measured:
Test in all cases: inhibition of tumour cell growth, NCI panel, 48 h
A549 NSCLC = test system: A549 NSCLC
MOLT-4 leukemia = test system: MOLT-4 leukemia
HL-60(TB) leukemia = test system: HL-60(TB) leukemia
DU-145 prostate = test system: DU-145 prostate
OVCAR-5 ovarian = test system: OVCAR-5 ovarian
HOP-92 NSCLC = test system: HOP-92 NSCLC
RPMI-8226 leukemia = test system: RPMI-8226 leukemia
PC-3 prostate = test system: PC-3 prostate
UACC-257 melanoma = test system: UACC-257 melanoma
EKVX NSCLC = test system: EKVX NSCLC
HS 578T breast = test system: HS 578T breast
UACC-62 melanoma = test system: UACC-62 melanoma
OVCAR-4 ovarian = test system: OVCAR-4 ovarian
T-47D breast = test system: T-47D breast
LOX IMVI melanoma = test system: LOX IMVI melanoma
SW-620 colon = test system: SW-620 colon
U251 CNS = test system: U251 CNS
786-0 renal = test system: 786-0 renal
HCC-2998 colon = test system: HCC-2998 colon
SR leukemia = test system: SR leukemia
RXF 393 renal = test system: RXF 393 renal
SK-MEL-28 melanoma = test system: SK-MEL-28 melanoma
SK-MEL-5 melanoma = test system: SK-MEL-5 melanoma
HT29 colon = test system: HT29 colon
NCI-H522 lung = test system: NCI-H522 lung
CAKI-1 renal = test system: CAKI-1 renal
M14 melanoma = test system: M14 melanoma
NCI-H23 lung = test system: NCI-H23 lung
HCT-116 colon = test system: HCT-116 colon
NCI/ADR-RES ovarian = test system: NCI/ADR-RES ovarian
HCT-15 colon = test system: HCT-15 colon
K-562 leukemia = test system: K-562 leukemia
OVCAR-8 ovarian = test system: OVCAR-8 ovarian
NCI-H226 lung = test system: NCI-H226 lung
MCF7 breast = test system: MCF7 breast
NCI-H460 lung = test system: NCI-H460 lung
CCRF-CEM leukemia = test system: CCRF-CEM leukemia
ACHN renal = test system: ACHN renal
KM12 colon = test system: KM12 colon
MDA-N = test system: MDA-N
SNB-75 CNS = test system: SNB-75 CNS
SF-295 CNS = test system: SF-295 CNS
MALME-3M melanoma = test system: MALME-3M melanoma
SF-539 CNS = test system: SF-539 CNS
COLO 205 colon = test system: COLO 205 colon
MDA-MB-231 breast = test system: MDA-MB-231 breast
IGROV1 ovarian = test system: IGROV1 ovarian
A498 renal = test system: A498 renal
SN12C renal = test system: SN12C renal
MDA-MB-435 = test system: MDA-MB-435
SK-OV-3 ovarian = test system: SK-OV-3 ovarian
HOP-62 NSCLC = test system: HOP-62 NSCLC
SF-268 CNS = test system: SF-268 CNS
SK-MEL-2 melanoma = test system: SK-MEL-2 melanoma
TK-10 renal = test system: TK-10 renal
UO-31 renal = test system: UO-31 renal
SNB-19 CNS = test system: SNB-19 CNS
OVCAR-3 ovarian = test system: OVCAR-3 ovarian
BT-549 breast = test system: BT-549 breast

Measured: TGI

CCOC(=O)c1c(SCc2ccccc2)nc2c3ccccc3ccn12
27.5 µM: HOP-92 NSCLC
58.3 µM: HS 578T breast
not listed: TK-10 renal | UO-31 renal | SNB-19 CNS | OVCAR-3 ovarian | BT-549 breast
> 100 µM: all other assays above

CCCNC(=S)N=Nc1c(O)[nH]c2ccccc12
not listed: BT-549 breast
> 100 µM: all other assays above

COC(=O)c1cc(C)ccc1/C=C1\Cc2cccc(C)c2C1=O
96 µM: SN12C renal
58.7 µM: NCI-H522 lung
61.8 µM: MDA-N
25.9 µM: SK-MEL-5 melanoma
81.4 µM: OVCAR-8 ovarian
62.2 µM: PC-3 prostate
66.2 µM: LOX IMVI melanoma
96.9 µM: MALME-3M melanoma
not listed: UACC-62 melanoma | NCI/ADR-RES ovarian | COLO 205 colon | MDA-MB-435 | SK-OV-3 ovarian | SK-MEL-2 melanoma
> 100 µM: all other assays above
